According to PubChem BioAssay AID1963863 (Molecular Pharmacology Branch, DTP, NCI, 2024):

System: 931267-113-T-J1-PDC KRAS spheroid with HUVEC/MSC, viability
Test: Anticancer human tumor 931267-113-T-J1-PDC patient-derived colon adenocarcinoma cell line growth inhibition [KRAS2]
Conditions: for IC50: curve of first compound; for viability, T/C: stronger effect = lower value
Summary of the method: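 Combination screen of spheroid viability in tumor-cell co-cultures with endothelial (HUVEC) and mesenchymal stem cell stroma. Each agent was tested in half-log dilutions, topping at clinical Cmax or at 10 microM without a known Cmax.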

[1] = second compound 0.0316 µM, first compound 0.0316 µM
[2] = second compound 0.0316 µM, first compound 0.1 µM
[3] = second compound 0.0316 µM, first compound 0.316 µM
[4] = second compound 0.0316 µM, first compound 1 µM
[5] = second compound 0.0316 µM, first compound 3.16 µM
[6] = second compound 0.1 µM, first compound 0.0316 µM
[7] = second compound 0.1 µM, first compound 0.1 µM
[8] = second compound 0.1 µM, first compound 0.316 µM
[9] = second compound 0.1 µM, first compound 1 µM
[10] = second compound 0.1 µM, first compound 3.16 µM
[11] = second compound 0.316 µM, first compound 0.0316 µM
[12] = second compound 0.316 µM, first compound 0.1 µM
[13] = second compound 0.316 µM, first compound 0.316 µM
[14] = second compound 0.316 µM, first compound 1 µM
[15] = second compound 0.316 µM, first compound 3.16 µM
[16] = second compound 1 µM, first compound 0.0316 µM
[17] = second compound 1 µM, first compound 0.1 µM
[18] = second compound 1 µM, first compound 0.316 µM
[19] = second compound 1 µM, first compound 1 µM
[20] = second compound 1 µM, first compound 3.16 µM
[21] = second compound 3.16 µM, first compound 0.0316 µM
[22] = second compound 3.16 µM, first compound 0.1 µM
[23] = second compound 3.16 µM, first compound 0.316 µM
[24] = second compound 3.16 µM, first compound 1 µM
[25] = second compound 3.16 µM, first compound 3.16 µM
[26] = second compound 0.0316 µM, first compound 10 µM
[27] = second compound 0.1 µM, first compound 10 µM
[28] = second compound 0.316 µM, first compound 10 µM
[29] = second compound 1 µM, first compound 10 µM
[30] = second compound 3.16 µM, first compound 10 µM
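Further: compound exposure lasted 7 days before the readout.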
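Wherever viability, T/C is given: 100% = DMSO vehicle control viability.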

CC1COCCN1c1cc(-c2ccnn2C)c2ccnc(-c3ccn[nH]3)c2n1 (stereo not given) + C=CC(=O)N1CCN(c2nc(OCC3CCCN3C)nc3c2CCN(c2cccc4cccc(C)c24)C3)CC1CC#N
IC50 (second compound 0.0316 µM): 44.1 nM | IC50 (second compound 0.1 µM): 45.4 nM | IC50 (second compound 0.316 µM): 39.8 nM | IC50 (second compound 1 µM): 25.6 nM | IC50 (second compound 3.16 µM): < 10 nM | viability, T/C (second compound 0.0316 µM, first compound 0.01 µM): 90.9% | viability, T/C [1]: 59% | viability, T/C [2]: 27.8% | viability, T/C [3]: 19.2% | viability, T/C [4]: 18.1% | viability, T/C [5]: 18% | viability, T/C (second compound 0.1 µM, first compound 0.01 µM): 122% | viability, T/C [6]: 62.8% | viability, T/C [7]: 22.2% | viability, T/C [8]: 18.6% | viability, T/C [9]: 21.6% | viability, T/C [10]: 21.5% | viability, T/C (second compound 0.316 µM, first compound 0.01 µM): 75.6% | viability, T/C [11]: 56.4% | viability, T/C [12]: 24.7% | viability, T/C [13]: 16.8% | viability, T/C [14]: 18.9% | viability, T/C [15]: 24.5% | viability, T/C (second compound 1 µM, first compound 0.01 µM): 88.9% | viability, T/C [16]: 41.3% | viability, T/C [17]: 12% | viability, T/C [18]: 12.8% | viability, T/C [19]: 21.3% | viability, T/C [20]: 24.1% | viability, T/C (second compound 3.16 µM, first compound 0.01 µM): 0.25% | viability, T/C [21]: 0.19% | viability, T/C [22]: 0.38% | viability, T/C [23]: 0.14% | viability, T/C [24]: 0.14% | viability, T/C [25]: 0.94%

CC1OCC2(CCN(c3cnc(Sc4ccnc(N)c4Cl)c(N)n3)CC2)C1N (stereo not given) + C=CC(=O)N1CCN(c2nc(OCC3CCCN3C)nc3c2CCN(c2cccc4cccc(C)c24)C3)CC1CC#N
IC50 (second compound 0.0316 µM): > 10000 nM | IC50 (second compound 0.1 µM): > 10000 nM | IC50 (second compound 0.316 µM): > 10000 nM | IC50 (second compound 1 µM): > 10000 nM | IC50 (second compound 3.16 µM): < 31.6 nM | viability, T/C [1]: 111% | viability, T/C [2]: 81.9% | viability, T/C [3]: 77.3% | viability, T/C [4]: 58.2% | viability, T/C [5]: 80% | viability, T/C [26]: 83% | viability, T/C [6]: 98.3% | viability, T/C [7]: 75.6% | viability, T/C [8]: 79.1% | viability, T/C [9]: 75.2% | viability, T/C [10]: 71.1% | viability, T/C [27]: 99.3% | viability, T/C [11]: 93% | viability, T/C [12]: 87.8% | viability, T/C [13]: 69.1% | viability, T/C [14]: 70.2% | viability, T/C [15]: 75.6% | viability, T/C [28]: 69.6% | viability, T/C [16]: 78% | viability, T/C [17]: 65.9% | viability, T/C [18]: 55.2% | viability, T/C [19]: 68.7% | viability, T/C [20]: 68.8% | viability, T/C [29]: 61.2% | viability, T/C [21]: 0.31% | viability, T/C [22]: 0.29% | viability, T/C [23]: 0.36% | viability, T/C [24]: 0.26% | viability, T/C [25]: 0.28% | viability, T/C [30]: 0.26%

CCNC(=O)CC1N=C(c2ccc(Cl)cc2)c2cc(OC)ccc2-n2c(C)nnc21 (stereo not given) + C=CC(=O)N1CCN(c2nc(OCC3CCCN3C)nc3c2CCN(c2cccc4cccc(C)c24)C3)CC1CC#N
IC50 (second compound 0.0316 µM): 3970 nM | IC50 (second compound 0.1 µM): 2560 nM | IC50 (second compound 0.316 µM): 1430 nM | IC50 (second compound 1 µM): 1030 nM | IC50 (second compound 3.16 µM): < 31.6 nM | viability, T/C [1]: 92% | viability, T/C [2]: 80.3% | viability, T/C [3]: 80.2% | viability, T/C [4]: 51.9% | viability, T/C [5]: 61% | viability, T/C [26]: 38.1% | viability, T/C [6]: 92.5% | viability, T/C [7]: 81.4% | viability, T/C [8]: 70.1% | viability, T/C [9]: 60.6% | viability, T/C [10]: 45.4% | viability, T/C [27]: 41.6% | viability, T/C [11]: 72.4% | viability, T/C [12]: 74.7% | viability, T/C [13]: 66.5% | viability, T/C [14]: 52.9% | viability, T/C [15]: 43.7% | viability, T/C [28]: 38.9% | viability, T/C [16]: 82.1% | viability, T/C [17]: 69.1% | viability, T/C [18]: 61.1% | viability, T/C [19]: 51.1% | viability, T/C [20]: 39.6% | viability, T/C [29]: 31.5% | viability, T/C [21]: 0.31% | viability, T/C [22]: 0.3% | viability, T/C [23]: 0.26% | viability, T/C [24]: 0.17% | viability, T/C [25]: 0.16% | viability, T/C [30]: 0.17%

Cn1nccc1Nc1nccc(-c2cc3c(s2)C(C)(C)N(CCN2CCOCC2)C3=O)n1 + C=CC(=O)N1CCN(c2nc(OCC3CCCN3C)nc3c2CCN(c2cccc4cccc(C)c24)C3)CC1CC#N
IC50 (second compound 0.0316 µM): 424 nM | IC50 (second compound 0.1 µM): 526 nM | IC50 (second compound 0.316 µM): 400 nM | IC50 (second compound 1 µM): 365 nM | IC50 (second compound 3.16 µM): < 31.6 nM | viability, T/C [1]: 118% | viability, T/C [2]: 97.7% | viability, T/C [3]: 59.8% | viability, T/C [4]: 23% | viability, T/C [5]: 7.09% | viability, T/C [26]: 4.66% | viability, T/C [6]: 88.9% | viability, T/C [7]: 92% | viability, T/C [8]: 57.8% | viability, T/C [9]: 37.8% | viability, T/C [10]: 4.83% | viability, T/C [27]: 4.43% | viability, T/C [11]: 107% | viability, T/C [12]: 91% | viability, T/C [13]: 55.7% | viability, T/C [14]: 25.5% | viability, T/C [15]: 6.39% | viability, T/C [28]: 4.33% | viability, T/C [16]: 88.5% | viability, T/C [17]: 65.9% | viability, T/C [18]: 59.7% | viability, T/C [19]: 23.2% | viability, T/C [20]: 3.82% | viability, T/C [29]: 2.07% | viability, T/C [21]: 0.35% | viability, T/C [22]: 0.25% | viability, T/C [23]: 0.29% | viability, T/C [24]: 0.14% | viability, T/C [25]: 0.14% | viability, T/C [30]: 0.22%
